Measured values as given in US8043623B2, “Immunogenic peptides for the treatment of prostate and breast cancer” (The Government of the United States of America as …, priority 2003, dated 2011).
Entries after “also recorded” stand apart in the source; their conditions may differ.

Key:
[1] = system: peptide-pulsed C1R-A2.1 target cells; assay: Human CTL 5-hour ^51Cr release assay on peptide-pulsed targets; format: cell-based; settings: for cytolytic activity of human CD8^+ CTL raised with the peptide against targets pulsed with the corresponding peptide / recognition of TARP-27-35 by human CTL raised with the peptide: C1R-A2.1 targets; for cross-reactivity of human CD8^+ CTL raised with the peptide to other peptides (wild-type TARP-29-37, enhanced epitopes): C1R-A2.1 targets pulsed with 10 μM peptides; for peptide concentration at which CTLs specific for TARP-29-37-9V recognize targets pulsed with the named peptide (avidity): label = peptide pulsed on targets, effector = TARP-29-37-9V-specific human CTL
Description: (§1) In vitro human CD8^+ T cell priming with DC. Elutriated monocytes and lymphocytes were obtained from HLA-A2.1-positive patients or normal donors. To prepare DC, monocytes were cultured at 10^6 cells/ml in complete medium containing human IL-4 (1000 units/ml) and human GM-CSF (1000 units/ml). On day 2 and 4, half of the media was exchanged. To mature the DC, CD40 ligand trimer (Immunex, Seattle, Wash.) was added at 1 μg/ml on day 4 or 5, and then further cultured for 2 or 3 days. Cells were harvested on day 7, and then pulsed with 10 μM of peptides for 2 hours before γ-irradiation. 1×10^5 peptide-pulsed DC and 2×10^6 autologous CD8^+ T cells were mixed and cultured in 24-well plates. 10 units/ml IL-2 was added on day 2 during restimulation. Cells were restimulated every 7-9 days approximately 4-7 cycles.
(§2) CTL assay. For murine CTL, CD8^+ T cells from the immunized mice were restimulated with peptide-loaded splenocytes for one week as previously described (Oh et al., J Immunol 170:2523, 2003), and then applied to 5 hour ^51Cr release assays. Target cells were labeled with ^51Cr first and washed twice. Cells were then pulsed with peptides for 2 hours and used as target cells without further washing. For human CTL, target cells were also labeled with ^51Cr first, and then loaded with peptides. In the CTL assay against human tumor cells, target cells were incubated in the complete medium containing 1000 units/ml IFN-γ for 72 hours. The mean of triplicate samples was calculated, and the percentage of specific lysis was determined using the following formula: Percentage of specific lysis=100×[(experimental ^51Cr release−control ^51Cr release)/(maximum ^51Cr release−control ^51Cr release)]. The maximum release refers to counts from targets in 2.5% Triton X-100.

[2] = system: MCF-7; assay: CTL assay against human tumor cells (MCF-7); format: cell-based
Description: as §1, §2

[3] = molecular target: T1, HLA-A2.1 molecules (Homo sapiens, UniProt P04439, D140Y/D185E/D98H/E176V/E277Q/G131W/G231S/I119V/I121R/I166T/I218V/L300P/L318F/N151K/N90K/P208A/P217A/Q86G/Q94H/R138H/R169H/T345S); assay: T2-binding assay; settings: T2 cells; for binding capacity to HLA-A2.1 molecules: overnight with β2-microglobulin, anti-HLA-A2 staining
T1 construct: The T2 cell line is deficient in TAP1 and TAP2 transporter proteins and expresses low levels of HLA-A2.1; endogenous in cells; host or cells: T2 cell line (TAP1/TAP2-deficient)
Description: T2-binding assay. Peptide binding capacity to HLA-A2.1 molecules was measured by using the T2 cell line according to a protocol previously described (Nijman et al., Eu. J. Immunol. 23:1215, 1993). T2 cells (3×10^5/well) were incubated overnight in 96-well plates with culture medium (1:1 mixture of RPMI 1640/EHAA containing 2.5% FBS, 100 U/ml penicillin, 100 μg/ml streptomycin) with 10 μg/ml β2-microglobulin (Sigma) and different concentrations of peptide. Cells were washed twice with cold PBS containing 2% FBS and incubated for 30 minutes at 4° C. with anti-HLA-A2.1 BB7.2 mAb ( 1/80 dilution from hybridoma supernatant). After washing, cells were stained with FITC-labeled goat anti-mouse Ig (PharMingen, San Diego, Calif.) and the level of HLA-A2.1 expression was measured by flow cytometry. HLA-A2.1 expression was quantified as fluorescence index (FI) according to the formula: FI=(mean fluorescence intensity with peptide-mean fluorescence intensity without peptide)/mean fluorescence intensity without peptide.

[4] = system: CD8^+ T cells; assay: In vitro human CD8^+ T cell priming with peptide-pulsed DC; format: cell-based; settings: CD8^+ T cells of an HLA-A2.1-positive prostate cancer patient, peptide-pulsed autologous DC
Description: as §1

[5] = system: A2K^b transgenic mice; assay: Immunization of A2K^b transgenic mice; murine CTL assay and intracellular IFN-γ staining; format: in vivo; settings: for cross-reactivity of murine CD8^+ CTL induced with the peptide: recognition of wild-type TARP-29-37 and other peptides on pulsed targets: Jurkat-HLA-A2 targets pulsed with peptides; for cross-reactivity of murine CD8^+ CTL induced with the peptide: recognition of wild-type TARP-29-37 and other peptides on pulsed targets / killing of target cells pulsed with TARP-27-35 by murine CTL induced with the peptide: ^51Cr release; for frequency of CD8^+ T cells specific for the individual peptide, compared to wild-type TARP-29-37: mice immunized s.c. with peptide and cytokine in adjuvant, IFN-γ staining; for number of IFN-γ-producing CD8^+ T cells, of total CD8^+ T cells: mice immunized with peptide-pulsed DC, intracellular staining
Description: Immunizations. A2K^b transgenic mice were immunized with syngeneic peptide-loaded dendritic cells (DC), plasmid DNA expressing TARP, or the mixture of peptide and cytokine in incomplete Freund's adjuvant (IFA). For DC immunization, DC were pulsed with 10 μM peptide in serum-free RPMI for 2 hours at 37° C., and then mice were immunized subcutaneously (s.c.) with 1-3×10^5 DC without washing. DC were prepared from bone marrow as previously described (Celluzzi et al. J. Exp. Med. 183:283, 1996). Alternatively, mice were immunized intramuscularly with 100 μg plasmid DNA, pcDNA5/FRT/TARP, generated by inserting the TARP DNA into the pcDNA5/RFT (Invitrogen, Carlsbad, Calif.) vector. Mice were also immunized subcutaneously (s.c.) in the base of the tail with 100 μl of an emulsion containing 1:1 IFA and PBS with antigens and cytokines (50 nmol CTL epitope, 50 nmol HBV core 128-140 helper epitope, 3 μg of IL-12, and 5 μg of granulocyte macrophage colony stimulating factor (GM-CSF). IFA and cytokines were purchased from Sigma and Peptotech (Rocky Hill, N.J.), respectively.
as §2
Antibody and flow cytometry. FITC-labeled anti-mouse CD8 (53-6.7), CD11c, CD80 (B7-1), CD54 (ICAM-1), anti-human CD8 (RPA-T8), CD14 (M5E2), CD80 (B7-1), and CD86 (B7-2) were used for staining of cell surface molecules. For intracellular IFN-γ staining, cells were stained by following the manufacturer's protocol. All Abs and reagents were purchased from PharMingen. For flow cytometric analysis of cell surface, 5×10^5 cells were washed and resuspended in PBS containing 0.2% BSA and 0.1% sodium azide. Cells were incubated on ice with the appropriate antibody for 30 minutes and then washed. Samples were analyzed on a FACScan (BD Biosciences, Mountain View, Calif.). Background staining was assessed by use of an isotype control antibody. For tetramer staining, cells were incubated with FITC-labeled anti-CD8 for 10 minutes, and then stained with tetramers.

[6] = 50:1 E/T ratio, targets pre-incubated with IFN-γ 72 hours

Substance	recognition of TARP-27-35 by human CTL raised with the peptide [1]	cross-reactivity of human CD8^+ CTL raised with the peptide to other peptides (wild-type TARP-29-37, enhanced epitopes) [1]	peptide concentration at which CTLs specific for TARP-29-37-9V recognize targets pulsed with the named peptide (avidity) [1]	lytic activity against MCF-7 of CD8^+ CTL specific for the peptide [2, 6]	binding affinity to HLA-A2.1 molecules compared with another peptide [3]	cross-reactivity of murine CD8^+ CTL induced with the peptide: recognition of wild-type TARP-29-37 and other peptides on pulsed targets [5]	frequency of CD8^+ T cells specific for the individual peptide, compared to wild-type TARP-29-37 [5]	binding capacity to HLA-A2.1 molecules [3]	also measured
FLANFSLML (TARP peptide with a R3A substitution.) [TARP-29-37-3A]	to some extent	poorly recognized the wild-type and TARP-29-37-9V; also recorded: did not recognize other peptides as much as they did the immunogens; also recorded: did not recognize wild-type peptide very well in the human	only slightly lower avidity	less lytic activity to MCF-7; also recorded: much lower lytic activity against tumor cells than CTLs to TARP-29-37-9V	greatest increase in the binding affinity; also recorded: not less than that of the positive control peptide, FMP; also recorded: highest binding affinity	recognized TARP-29-37-3A/MHC complex better than other peptide/MHC Class I complexes; also recorded: weak cross-reactivity to wild-type peptide in the mice	almost two-fold higher frequencies of CD8^+ T cells; also recorded: high CD8^+ T cell responses in transgenic mice	–	cytolytic activity of human CD8^+ CTL raised with the peptide against targets pulsed with the corresponding peptide [1]: higher levels of cytolytic activity against the corresponding peptides; lytic activity against MCF-7 of CD8^+ CTL specific for the peptide ([2]; 100:1 E/T ratio): comparable range of lytic activity against MCF-7 cells; also recorded: significant range of specific lysis only at a 100:1 E:T ratio; cycles of in vitro restimulation needed to detect peptide-specific CD8^+ T cells [4]: after only four cycles; killing of target cells pulsed with TARP-27-35 by murine CTL induced with the peptide [5]: did not kill target cells pulsed with TARP-27-35
FLRNFSLML (listed as Homo sapiens) [TARP-29-37]	to some extent	could recognize and lyse target cells pulsed with the wild-type as well as the two enhanced epitopes; also recorded: killed the wild-type peptide (TARP-29-37, SEQ ID NO: 5)-pulsed target cells efficiently; also recorded: could recognize all four peptide/MHC complexes	only slightly lower avidity	–	–	–	–	showed measurable binding capacity	peptide-specific CD8^+ T cell responses (CTL) ([5]; mice immunized with peptide-pulsed DC or plasmid DNA expressing TARP): lower peptide-specific CD8^+ T cell responses; number of IFN-γ-producing CD8^+ T cells, of total CD8^+ T cells [5]: significant number of CD8^+ T cells producing IFN-γ
FLRNFSLMV (TARP peptide with a L9V substitution.) [TARP-29-37-9V]	to some extent	could recognize both wild-type and TARP-29-37-3A comparably; also recorded: killed the wild-type peptide (TARP-29-37, SEQ ID NO: 5)-pulsed target cells efficiently; also recorded: to a similar degree to the immunogen	0.001 µM	higher lytic activity against MCF-7; also recorded: could kill human tumor cells	lower binding affinity to HLA-A2.1 than TARP-29-37-3A; also recorded: did enhance the binding affinity of wild-type peptide	slightly more potent in killing targets pulsed with wild-type TARP-29-37; also recorded: most immunogenic of the peptides in inducing CTLs specific for the wild-type sequence	almost two-fold higher frequencies of CD8^+ T cells; also recorded: higher level of CD8^+ T cell responses than TARP-29-37	–	cycles of in vitro restimulation needed to detect peptide-specific CD8^+ T cells [4]: at least five cycles; killing of target cells pulsed with TARP-27-35 by murine CTL induced with the peptide [5]: could also kill target cells pulsed with TARP-27-35
FVFLRNFSL (listed as Homo sapiens) [TARP-27-35]	–	poorly recognized other peptide/MHC complexes tested; also recorded: did not recognize other peptides as much as they did the immunogens	–	higher lytic activity against MCF-7; also recorded: could kill human tumor cells as well	almost a ten-fold higher binding affinity	did not recognize TARP-29-37	higher frequency of CD8^+ CTL specific for the peptide	showed measurable binding capacity	cytolytic activity of human CD8^+ CTL raised with the peptide against targets pulsed with the corresponding peptide [1]: higher levels of cytolytic activity against the corresponding peptides; also recorded: lysed TARP-27-35-pulsed target cells; number of IFN-γ-producing CD8^+ T cells, of total CD8^+ T cells [5]: 2.1%
TARP-2-9: amino acids 2-9 of SEQ ID NO: 1 (QMFPPSPL; listed as Homo sapiens)	–	–	–	–	–	–	–	Neither TARP-2-9 nor TARP-22-30 showed any measurable binding affinity	–
TARP-22-30: amino acids 22-30 of SEQ ID NO: 1 (RLEHTFVFL; listed as Homo sapiens)	–	–	–	–	–	–	–	Neither TARP-2-9 nor TARP-22-30 showed any measurable binding affinity	–
TARP-27-35-2L: TARP-27-35 substituted at position 2 with Leu (FLFLRNFSL; listed as Homo sapiens)	–	–	–	–	did not alter the binding affinity of the wild-type peptide	–	–	–	–
TARP-27-35-9V: TARP-27-35 substituted at position 9 with Val (FVFLRNFSV; listed as Homo sapiens)	–	–	–	–	did not alter the binding affinity of the wild-type peptide	–	–	–	–
substitution with Ala at position 3 in TARP-27-35: TARP-27-35 with Phe at position 3 replaced by Ala (FVALRNFSL; listed as Homo sapiens)	–	–	–	–	–	–	–	no binding of the peptide to HLA-A2.1 molecules	–
